Residue numbers refer to the chain shown, from its start. Entries after “also recorded” stand apart in the source; their conditions may differ. One block for each compound: values may come before it.
Legend:
TASK-2 [1] = target: T1, TASK-2 (Mus musculus, UniProt F6V9U5); assay: Excised inside-out patch recording from HEK-293 cells over-expressing TASK-2; type: biochemical; details: for Stimulating effect on TASK-2-mediated currents after run-down: diC8 PIP added to inside-out excised patches; for Maximal fold effect on TASK-2 current (normalised to current in absence of PIP) / EC50: -60 mV, from fits, means ± SEM; for EC50: read-out: K0.5 (EC50) for activation of TASK-2 current
T1 construct: expressed in transfected cells; host or cells: HEK-293
T1 sequence (F6V9U5 1-502): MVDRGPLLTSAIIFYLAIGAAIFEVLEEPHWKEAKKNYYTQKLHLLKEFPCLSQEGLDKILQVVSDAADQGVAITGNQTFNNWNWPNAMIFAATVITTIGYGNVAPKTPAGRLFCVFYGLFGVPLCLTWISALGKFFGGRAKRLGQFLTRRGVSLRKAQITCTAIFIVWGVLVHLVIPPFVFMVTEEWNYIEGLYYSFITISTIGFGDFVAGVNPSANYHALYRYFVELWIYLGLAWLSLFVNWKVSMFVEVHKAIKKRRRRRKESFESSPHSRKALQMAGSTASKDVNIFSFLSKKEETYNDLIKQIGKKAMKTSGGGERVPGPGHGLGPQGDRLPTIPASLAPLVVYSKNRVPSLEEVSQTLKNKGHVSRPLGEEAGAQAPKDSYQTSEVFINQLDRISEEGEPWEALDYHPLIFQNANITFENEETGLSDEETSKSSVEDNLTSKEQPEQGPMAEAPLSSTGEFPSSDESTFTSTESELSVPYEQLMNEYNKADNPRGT

TASK-2-K297C = target: T2, TASK-2-K297C (Mus musculus, UniProt F6V9U5, K297C); assay: Excised inside-out patch recording, TASK-2-K297C mutant; type: biochemical; details: 2 mM reducing agent, inside-out patch
T2 construct: expressed in transfected cells; host or cells: HEK-293
T2 sequence (F6V9U5 1-502 K297C): T1 sequence (F6V9U5 1-502) with K297C
Protocol: Figure 6 Scanning of potential sites of interaction of TASK-2 with PI(4,5)P2 by cysteine mutagenesis of intracellular basic residues. (A) Schematic representation of TASK-2 topology showing the sequences of segments of the protein predicted to be intracellular or intracellular-facing. Basic residues are highlighted in red. (B) Recording from an excised inside-out patch of membrane taken from a HEK-293 cell over-expressing TASK-2. The patch was held at −60 mV in the presence of 1 mM ATP. At the intervals indicated by the boxes the intracellular aspect of the membrane was exposed to 300 μM Neomycin and then to 100 μM TPeA. At the end of the TPeA period the patch was additionally exposed to 1 mM MTSET as shown by the black box. (C and D) experiments as in (B), but with inside-out membrane patches obtained from cells expressing the mutants TASK-2-H327C and TASK-2-K297C respectively. In D the reducing agent DTT was also added at 2 mM. (E) Summary of experiments comparing the current before and after treatment with MTSET.
Mus musculus TASK-2 (GenBank accession No. AF319542) plasmid was that obtained from mouse kidney. The cDNAs was subcloned into the pCR3.1 vector. Mutations were made by site-directed mutagenesis into the pCR3.1 vector as previously described[69] and confirmed by sequencing. HEK-293 cells were cultured in Dulbecco’s modified Eagle’s medium (DMEM) and F12 Ham’s medium at a 1:1 ratio and supplemented with 10% fetal calf serum at 37 °C in 5% CO2. For electrophysiological experiments, transient transfections were performed by electroporation, using CD8 cotransfection to identify effectively transfected cells. […] Experiments were performed 4–8 h after electroporation. […]
Recordings in the inside-out isolated patch configuration were performed in the gap-free mode at −60 mV. […] Traces shown are prints from crude Clampfit screen shots and quantification was done using the average currents were calculated at intervals using Clampfit after baseline adjustment.

TASK-2 [2] = target: T1, TASK-2; assay: Whole-cell patch-clamp of HEK-293 cells expressing TASK-2; type: cell-based
Protocol: Mus musculus TASK-2 (GenBank accession No. AF319542) plasmid was that obtained from mouse kidney. The cDNAs was subcloned into the pCR3.1 vector. Mutations were made by site-directed mutagenesis into the pCR3.1 vector as previously described[69] and confirmed by sequencing. HEK-293 cells were cultured in Dulbecco’s modified Eagle’s medium (DMEM) and F12 Ham’s medium at a 1:1 ratio and supplemented with 10% fetal calf serum at 37 °C in 5% CO2. For electrophysiological experiments, transient transfections were performed by electroporation, using CD8 cotransfection to identify effectively transfected cells. […] Experiments were performed 4–8 h after electroporation. In experiments with the voltage-sensitive phosphatase TASK-2 or its mutants were co-electroporated with a pCR3.1-DrVSP-IRES-CD8 vector.
Transiently transfected HEK-293 cells in 35 mm Petri dishes were transferred to the stage of an inverted microscope for study. There they were continuously superfused with a bathing solution containing (in mM): 67.5 Na2SO4, 4 KCl, 1 K gluconate, 2 CaCl2, 1 MgCl2, 105 sucrose, and 10 Hepes/Tris (pH 7.5) (standard solution). A high K^+ solution was obtained by equimolar replacement of Na^+ by K^+. The pipette solution contained (mM) 8 KCl, 132 potassium gluconate, 1 MgCl2, 10 EGTA, 1 Na3ATP, 0.1 GTP, 10 HEPES/Tris, pH 7.4. Standard whole-cell, patch-clamp recordings were performed as described elsewhere. All our whole-cell experiments keep both intra- and extracellular chloride at 10 mM and although currents were measured at several potentials, data mostly reported are those obtained at 0 mV. Potentials were corrected for liquid junction shifts. Acquisition and analysis was done with Clampfit 9.0 (Axon Instruments, Foster City, CA, USA). Further data analysis was done using the curve fitting features of SigmaPlot v. 12 (Systat Software Inc., San Jose, CA, USA).

TASK-3 = assay: Whole-cell current in TASK-3-expressing cells; type: cell-based; details: 100 nM 1,2-dioctanoyl-sn-glycerol, pulses to 0 mV from -75 mV
Protocol: Figure 3 Gq protein coupled receptor inhibition of TASK-2 and minor effect of diacylglycerol. (A) Effect of activation of the angiotensin II receptor AT1 on TASK-2-mediated currents. HEK-293 cells were co-transfected with AT1 and TASK-2, or the TASK-2-K257A-K258A mutant. Current was monitored by brief pulses to 0 mV from a holding potential of −75 mV. Angiotensin II at a concentration of 1 μM was added during the indicated time. Results are means ± SEM of 6 experiments for TASK-2 and 4 experiments for TASK-2-K257A-K258A. (B) Effect of a diacylglycerol analogue assayed on TASK-2- and TASK-3-expressing cells. Current was monitored by brief pulses to 0 mV from a holding potential of −75 mV. The box labelled DAG indicates the addition of diacylglycerol short-chain analogue 1,2-dioctanoyl-sn-glycerol at 100 nM. Results are means ± SEM of 5 experiments for TASK-2 and 8 experiments for TASK-3.
Transiently transfected HEK-293 cells in 35 mm Petri dishes were transferred to the stage of an inverted microscope for study. […] All our whole-cell experiments keep both intra- and extracellular chloride at 10 mM and although currents were measured at several potentials, data mostly reported are those obtained at 0 mV. […]

[3] = diC8 PIP, inside-out patch, absence of ATP

Reversal of MTSET inhibition of WT TASK-2 (TASK-2 [1]; 2 mM reducing agent, inside-out patch, Fig. S4): reversibility of the effect | Reversal of the MTSET effect on TASK-2-K297C (TASK-2-K297C): reversed, at least partially
SMILES: O[C@@H](CS)[C@@H](O)CS (racemic) [DTT, dithiothreitol]

SMILES: Nc1ncnc2c1ncn2[C@@H]1O[C@H](CO[P@](=O)(O)O[P@](=O)(O)O[P@@](=O)(O)S)[C@@H](O)[C@H]1O [ATP-γ-S, adenosine-5′-(γ-thio)-triphosphate]
Ability to support TASK-2-mediated current in place of ATP (TASK-2 [2]; whole-cell, pipette solution with non-hydrolysable analogue, 0 mV): unable to support the TASK-2-mediated current

Effect on TASK-2 current (TASK-2 [2]; 100 nM 1,2-dioctanoyl-sn-glycerol, pulses to 0 mV from -75 mV): only a minor effect
SMILES: CCCCCCCC(=O)OC[C@H](CO)OC(=O)CCCCCCC [DAG, 1,2-dioctanoyl-sn-glycerol]
Effect on TASK-3 current (TASK-3): strong inhibition

Effect of readmitted ATP relative to the maximal effect elicited by the PIP (TASK-2 [1]; 1 mM ATP added after PIP, inside-out patches, Fig. S3): 1.4 fold | Stimulating effect on TASK-2-mediated currents after run-down (TASK-2 [1]; absence of ATP): Robust, but intermediate effects | Maximal fold effect on TASK-2 current (normalised to current in absence of PIP) (TASK-2 [1]; [3]): 4.3 ± 0.4 fold | EC50 (TASK-2 [1]; [3]): 48.4 ± 4.6 µM | Hill coefficient nH of dose response curve (TASK-2 [1]; [3]): 2
SMILES: CCCCCCCC(=O)OC[C@H](COP(=O)(O)O[C@H]1[C@H](O)[C@@H](O)[C@H](OP(=O)(O)O)[C@@H](OP(=O)(O)O)[C@H]1O)OC(=O)CCCCCCC [PI(3,4)P2, phosphatidylinositol 3,4-bisphosphate diC8]

Maximal fold effect on TASK-2 current (normalised to current in absence of PIP) (TASK-2 [1]; [3]): 11.6 ± 1.6 fold | EC50 (TASK-2 [1]; [3]): 29.8 ± 10.2 µM
SMILES: CCCCCCCC(=O)OC[C@H](COP(=O)(O)O[C@H]1[C@H](O)[C@@H](OP(=O)(O)O)[C@H](OP(=O)(O)O)[C@@H](OP(=O)(O)O)[C@H]1O)OC(=O)CCCCCCC [PI(3,4,5)P3, phosphatidylinositol 3,4,5-trisphosphate diC8]
Stimulating effect on TASK-2-mediated currents after run-down (TASK-2 [1]; absence of ATP): Largest effect; also recorded: most potent effect
